Five compounds from ChEMBL document CHEMBL1150977, “A quantitative analysis of kinase inhibitor selectivity” (Nat Biotechnol, 2008) can be followed below.

The target in one assay is Focal adhesion kinase 1 (Homo sapiens, UniProt Q05397).
Assay [1] has as its target Dual specificity protein kinase CLK4 (Homo sapiens, UniProt Q9HAZ1).
Assay [2] deals with cAMP-dependent protein kinase catalytic subunit alpha (Homo sapiens, UniProt P17612).
Assay [3] addresses Ribosomal protein S6 kinase alpha-6 (Homo sapiens, UniProt Q9UK32).
The next assay concerns the target T1, TGF-beta receptor type-1 (Homo sapiens, UniProt P36897).
T1 sequence (P36897 whole entry): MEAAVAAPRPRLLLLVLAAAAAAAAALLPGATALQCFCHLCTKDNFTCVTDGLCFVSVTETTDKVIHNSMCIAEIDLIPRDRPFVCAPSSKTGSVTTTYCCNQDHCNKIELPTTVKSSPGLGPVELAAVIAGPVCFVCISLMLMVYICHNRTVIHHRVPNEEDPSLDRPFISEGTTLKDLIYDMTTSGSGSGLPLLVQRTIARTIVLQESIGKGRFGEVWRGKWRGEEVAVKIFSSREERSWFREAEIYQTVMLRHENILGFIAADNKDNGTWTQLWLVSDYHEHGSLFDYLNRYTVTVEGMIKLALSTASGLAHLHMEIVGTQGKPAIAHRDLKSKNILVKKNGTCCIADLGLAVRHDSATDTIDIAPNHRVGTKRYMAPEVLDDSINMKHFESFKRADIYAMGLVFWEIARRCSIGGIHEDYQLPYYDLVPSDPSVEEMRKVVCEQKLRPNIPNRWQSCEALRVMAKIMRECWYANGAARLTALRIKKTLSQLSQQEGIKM

The target of assay [4] is T2, Cyclin-dependent kinase 11A (Homo sapiens, UniProt Q9UQ88).
T2 sequence (Q9UQ88 whole entry): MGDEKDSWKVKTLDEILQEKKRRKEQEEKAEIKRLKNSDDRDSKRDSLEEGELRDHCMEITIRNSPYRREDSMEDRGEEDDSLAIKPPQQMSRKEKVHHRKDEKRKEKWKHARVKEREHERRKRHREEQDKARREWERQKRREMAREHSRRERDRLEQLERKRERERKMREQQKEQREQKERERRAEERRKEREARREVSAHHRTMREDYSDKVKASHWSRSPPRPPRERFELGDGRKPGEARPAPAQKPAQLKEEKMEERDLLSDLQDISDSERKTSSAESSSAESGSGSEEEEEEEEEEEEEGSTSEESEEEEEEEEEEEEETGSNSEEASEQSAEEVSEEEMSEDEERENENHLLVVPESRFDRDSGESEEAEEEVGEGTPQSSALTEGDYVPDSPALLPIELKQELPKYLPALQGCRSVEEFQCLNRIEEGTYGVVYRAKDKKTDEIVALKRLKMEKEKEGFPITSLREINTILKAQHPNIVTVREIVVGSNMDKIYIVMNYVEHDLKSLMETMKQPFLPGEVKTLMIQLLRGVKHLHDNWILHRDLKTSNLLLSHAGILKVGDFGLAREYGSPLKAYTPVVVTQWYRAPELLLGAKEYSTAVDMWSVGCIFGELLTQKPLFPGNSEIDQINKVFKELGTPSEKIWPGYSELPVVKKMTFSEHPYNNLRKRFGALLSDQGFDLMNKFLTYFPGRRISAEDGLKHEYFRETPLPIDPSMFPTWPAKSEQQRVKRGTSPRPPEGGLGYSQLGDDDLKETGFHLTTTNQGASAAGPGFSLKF

Assay [5] concerns the target Death-associated protein kinase 2 (Homo sapiens, UniProt Q9UIK4).
Assay [6] has as its target T3, Serine/threonine-protein kinase DCLK3 (Homo sapiens, UniProt Q9C098).
T3 sequence (Q9C098 whole entry): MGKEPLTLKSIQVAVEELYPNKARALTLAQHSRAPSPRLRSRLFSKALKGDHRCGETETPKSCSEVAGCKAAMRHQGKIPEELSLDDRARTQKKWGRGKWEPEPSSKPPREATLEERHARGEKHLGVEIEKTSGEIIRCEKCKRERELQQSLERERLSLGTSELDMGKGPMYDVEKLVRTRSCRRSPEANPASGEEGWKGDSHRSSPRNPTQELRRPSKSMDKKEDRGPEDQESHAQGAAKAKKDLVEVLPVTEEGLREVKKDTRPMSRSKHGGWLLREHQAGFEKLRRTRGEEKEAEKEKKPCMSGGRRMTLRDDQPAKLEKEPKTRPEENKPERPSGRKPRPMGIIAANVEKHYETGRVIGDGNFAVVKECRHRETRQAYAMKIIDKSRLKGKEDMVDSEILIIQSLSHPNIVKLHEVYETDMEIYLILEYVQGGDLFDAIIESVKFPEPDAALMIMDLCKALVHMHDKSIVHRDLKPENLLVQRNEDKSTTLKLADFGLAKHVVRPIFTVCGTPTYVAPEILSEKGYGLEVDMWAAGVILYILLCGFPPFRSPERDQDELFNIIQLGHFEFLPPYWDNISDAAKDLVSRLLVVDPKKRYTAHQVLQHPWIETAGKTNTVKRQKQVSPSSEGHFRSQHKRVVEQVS

The target of assay [7] is Mitogen-activated protein kinase kinase kinase kinase 5 (Homo sapiens, UniProt Q9Y4K4).
Sequence of Mitogen-activated protein kinase kinase kinase kinase 5 (Q9Y4K4 whole entry): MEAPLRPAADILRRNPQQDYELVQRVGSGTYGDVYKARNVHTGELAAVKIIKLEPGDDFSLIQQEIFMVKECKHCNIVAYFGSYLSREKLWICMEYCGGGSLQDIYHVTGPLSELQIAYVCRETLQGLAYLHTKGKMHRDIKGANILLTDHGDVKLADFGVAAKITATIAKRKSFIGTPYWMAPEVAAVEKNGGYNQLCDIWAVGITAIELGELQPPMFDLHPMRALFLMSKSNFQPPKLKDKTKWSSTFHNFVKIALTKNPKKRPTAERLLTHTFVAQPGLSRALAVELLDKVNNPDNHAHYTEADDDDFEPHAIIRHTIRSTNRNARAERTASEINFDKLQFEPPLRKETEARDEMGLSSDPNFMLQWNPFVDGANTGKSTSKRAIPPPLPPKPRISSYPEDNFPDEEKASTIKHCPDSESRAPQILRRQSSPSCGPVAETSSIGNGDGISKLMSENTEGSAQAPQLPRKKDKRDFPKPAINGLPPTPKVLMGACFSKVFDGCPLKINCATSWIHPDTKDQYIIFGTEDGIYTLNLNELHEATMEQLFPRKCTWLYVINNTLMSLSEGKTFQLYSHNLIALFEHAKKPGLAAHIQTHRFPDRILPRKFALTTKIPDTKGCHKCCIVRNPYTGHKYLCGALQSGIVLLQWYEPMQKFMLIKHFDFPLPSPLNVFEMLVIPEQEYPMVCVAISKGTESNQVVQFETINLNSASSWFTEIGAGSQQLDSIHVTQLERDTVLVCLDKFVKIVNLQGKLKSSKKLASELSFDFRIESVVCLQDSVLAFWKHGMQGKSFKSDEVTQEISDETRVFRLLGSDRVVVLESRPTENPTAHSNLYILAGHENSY
The target of assay [8] is Tyrosine-protein kinase Yes (Homo sapiens, UniProt P07947).
Sequence of Tyrosine-protein kinase Yes (P07947 whole entry): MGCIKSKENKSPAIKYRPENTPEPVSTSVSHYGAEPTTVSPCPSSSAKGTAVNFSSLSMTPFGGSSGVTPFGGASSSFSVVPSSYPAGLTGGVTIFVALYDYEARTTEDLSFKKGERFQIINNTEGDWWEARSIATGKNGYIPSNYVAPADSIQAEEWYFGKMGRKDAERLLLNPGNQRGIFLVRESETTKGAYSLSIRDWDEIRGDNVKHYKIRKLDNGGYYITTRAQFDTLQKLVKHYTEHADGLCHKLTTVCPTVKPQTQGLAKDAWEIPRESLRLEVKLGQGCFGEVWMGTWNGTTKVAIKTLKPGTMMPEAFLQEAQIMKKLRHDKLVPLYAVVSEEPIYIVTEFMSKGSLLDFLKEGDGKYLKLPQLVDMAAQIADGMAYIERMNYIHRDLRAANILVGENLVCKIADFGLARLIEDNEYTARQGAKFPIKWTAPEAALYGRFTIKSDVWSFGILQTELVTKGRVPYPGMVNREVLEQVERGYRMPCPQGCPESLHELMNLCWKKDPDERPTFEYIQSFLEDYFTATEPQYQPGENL
Assay [9] concerns the target T4, Interleukin-1 receptor-associated kinase 3 (Homo sapiens, UniProt Q9Y616).
T4 sequence (Q9Y616 whole entry): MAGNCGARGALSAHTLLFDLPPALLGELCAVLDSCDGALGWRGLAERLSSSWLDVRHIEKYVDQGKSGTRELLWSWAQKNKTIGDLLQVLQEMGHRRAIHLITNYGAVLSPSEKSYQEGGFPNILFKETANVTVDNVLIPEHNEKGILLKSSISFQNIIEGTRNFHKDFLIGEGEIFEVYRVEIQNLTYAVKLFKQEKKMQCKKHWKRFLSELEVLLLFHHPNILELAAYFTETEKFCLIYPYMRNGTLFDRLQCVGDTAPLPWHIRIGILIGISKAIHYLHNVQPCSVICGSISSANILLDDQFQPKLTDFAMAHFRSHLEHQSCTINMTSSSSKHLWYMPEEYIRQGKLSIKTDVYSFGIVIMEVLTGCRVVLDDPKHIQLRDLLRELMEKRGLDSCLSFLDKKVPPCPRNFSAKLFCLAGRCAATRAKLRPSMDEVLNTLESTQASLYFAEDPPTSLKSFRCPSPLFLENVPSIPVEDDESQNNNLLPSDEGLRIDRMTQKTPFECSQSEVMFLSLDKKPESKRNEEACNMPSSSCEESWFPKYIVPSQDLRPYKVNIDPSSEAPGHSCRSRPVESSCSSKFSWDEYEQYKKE

Sequence of Ribosomal protein S6 kinase alpha-6 (Q9UK32 whole entry): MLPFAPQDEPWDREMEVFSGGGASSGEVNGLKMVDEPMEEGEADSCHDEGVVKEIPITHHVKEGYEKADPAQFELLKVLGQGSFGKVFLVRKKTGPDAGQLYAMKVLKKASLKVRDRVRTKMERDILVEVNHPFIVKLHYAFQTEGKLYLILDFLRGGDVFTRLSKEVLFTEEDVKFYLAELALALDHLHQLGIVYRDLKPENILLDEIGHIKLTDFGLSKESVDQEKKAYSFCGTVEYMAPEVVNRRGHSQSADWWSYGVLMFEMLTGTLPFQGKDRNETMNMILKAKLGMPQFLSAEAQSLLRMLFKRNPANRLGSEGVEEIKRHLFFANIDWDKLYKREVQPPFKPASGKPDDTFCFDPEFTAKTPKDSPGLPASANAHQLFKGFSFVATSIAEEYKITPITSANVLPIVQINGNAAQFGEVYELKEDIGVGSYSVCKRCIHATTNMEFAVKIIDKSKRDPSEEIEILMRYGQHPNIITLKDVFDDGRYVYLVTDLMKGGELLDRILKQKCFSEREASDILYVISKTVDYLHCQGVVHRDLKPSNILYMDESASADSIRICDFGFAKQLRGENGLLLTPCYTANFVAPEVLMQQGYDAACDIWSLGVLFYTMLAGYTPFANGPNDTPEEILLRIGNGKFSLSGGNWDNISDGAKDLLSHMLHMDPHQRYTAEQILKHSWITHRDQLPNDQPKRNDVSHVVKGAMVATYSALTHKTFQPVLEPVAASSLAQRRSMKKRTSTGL
Sequence of Death-associated protein kinase 2 (Q9UIK4 whole entry): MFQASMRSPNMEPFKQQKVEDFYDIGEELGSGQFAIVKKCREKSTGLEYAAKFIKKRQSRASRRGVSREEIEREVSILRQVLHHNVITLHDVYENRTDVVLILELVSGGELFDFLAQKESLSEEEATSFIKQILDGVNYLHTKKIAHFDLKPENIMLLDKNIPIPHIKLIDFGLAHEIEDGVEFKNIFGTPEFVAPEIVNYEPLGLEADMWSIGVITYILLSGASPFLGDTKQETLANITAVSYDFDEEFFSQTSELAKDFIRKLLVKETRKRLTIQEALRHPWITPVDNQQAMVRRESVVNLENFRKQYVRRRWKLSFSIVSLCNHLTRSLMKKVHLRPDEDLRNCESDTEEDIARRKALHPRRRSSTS
Sequence of Dual specificity protein kinase CLK4 (Q9HAZ1 whole entry): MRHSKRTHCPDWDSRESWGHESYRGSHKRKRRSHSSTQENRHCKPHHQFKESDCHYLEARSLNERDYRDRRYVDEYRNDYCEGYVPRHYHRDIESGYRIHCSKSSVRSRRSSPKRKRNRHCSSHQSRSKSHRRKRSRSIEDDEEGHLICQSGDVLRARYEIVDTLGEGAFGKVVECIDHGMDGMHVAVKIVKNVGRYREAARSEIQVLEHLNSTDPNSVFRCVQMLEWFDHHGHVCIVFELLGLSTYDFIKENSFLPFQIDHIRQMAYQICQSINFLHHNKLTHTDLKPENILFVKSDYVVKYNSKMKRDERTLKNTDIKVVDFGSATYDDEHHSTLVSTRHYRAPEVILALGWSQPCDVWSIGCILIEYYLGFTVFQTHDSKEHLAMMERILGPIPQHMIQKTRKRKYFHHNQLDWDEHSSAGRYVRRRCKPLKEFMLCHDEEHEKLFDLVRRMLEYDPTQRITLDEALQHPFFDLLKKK
Sequence of Focal adhesion kinase 1 (Q05397 whole entry): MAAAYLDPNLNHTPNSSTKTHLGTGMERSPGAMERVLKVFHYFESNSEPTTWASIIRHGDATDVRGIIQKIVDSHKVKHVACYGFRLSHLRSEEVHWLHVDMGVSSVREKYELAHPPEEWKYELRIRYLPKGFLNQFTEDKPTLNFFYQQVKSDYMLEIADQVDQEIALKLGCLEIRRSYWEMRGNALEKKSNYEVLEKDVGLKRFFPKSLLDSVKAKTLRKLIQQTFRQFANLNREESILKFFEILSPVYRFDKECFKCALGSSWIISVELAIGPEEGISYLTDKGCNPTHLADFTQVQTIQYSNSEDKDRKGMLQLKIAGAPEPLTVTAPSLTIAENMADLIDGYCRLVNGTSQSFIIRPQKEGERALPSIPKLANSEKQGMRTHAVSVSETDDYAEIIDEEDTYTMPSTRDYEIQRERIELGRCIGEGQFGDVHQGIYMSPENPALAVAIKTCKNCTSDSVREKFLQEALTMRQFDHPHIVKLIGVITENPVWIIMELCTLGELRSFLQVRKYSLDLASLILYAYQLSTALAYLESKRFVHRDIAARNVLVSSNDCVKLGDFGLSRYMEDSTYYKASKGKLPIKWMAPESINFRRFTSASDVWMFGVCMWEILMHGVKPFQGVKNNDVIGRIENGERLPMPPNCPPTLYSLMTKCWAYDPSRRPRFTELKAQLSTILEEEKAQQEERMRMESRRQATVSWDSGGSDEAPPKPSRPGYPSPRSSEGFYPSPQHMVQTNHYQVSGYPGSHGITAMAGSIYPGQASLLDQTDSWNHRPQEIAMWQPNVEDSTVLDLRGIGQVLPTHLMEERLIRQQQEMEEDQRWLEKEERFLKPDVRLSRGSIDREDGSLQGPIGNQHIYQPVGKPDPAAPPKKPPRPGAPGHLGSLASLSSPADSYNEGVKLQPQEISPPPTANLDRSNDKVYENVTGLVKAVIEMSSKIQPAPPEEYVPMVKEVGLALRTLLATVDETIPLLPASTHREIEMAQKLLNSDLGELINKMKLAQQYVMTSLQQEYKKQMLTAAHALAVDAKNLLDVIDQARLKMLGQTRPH

For the compound `COCC(=O)NC/C=C/c1ccc2ncnc(Nc3ccc(Oc4ccc(C)nc4)c(C)c3)c2c1` [CP-724714], the Kd (on Focal adhesion kinase 1; in [1]; in [2]; in [3]; at TGF-beta receptor type-1; in [4]) was more than 10 µM each time. In addition, the Kd in assay [5], in assay [6], in assay [7], in [8] and in assay [9] was more than 10 µM in each case.

Turning to `Nc1nc(Nc2ccc(S(N)(=O)=O)cc2)nn1C(=O)c1c(F)cccc1F` [JNJ-7706621], the Kd (usually the constant that tells how readily two partners part at equilibrium) at TGF-beta receptor type-1 is more than 10 µM; in assay [5], more than 10 µM; in [8] it was more than 10 µM; in [9], 3.4 µM.

For `CCOc1cc2ncc(C#N)c(Nc3ccc(F)c(Cl)c3)c2cc1NC(=O)/C=C/CN(C)C` [PELITINIB], the Kd was more than 10 µM in assay [2]; more than 10 µM in assay [3]; more than 10 µM on TGF-beta receptor type-1; more than 10 µM in [4]; more than 10 µM in assay [5]; 4.9 µM in assay [6]. In addition, the Kd was 0.01 µM in assay [7], 1.1 µM in assay [8] and more than 10 µM in assay [9].

As for `Oc1ccc(-c2nc(-c3ccncc3)c(-c3ccc(F)cc3)[nH]2)cc1` [SB-202190], the Kd (on Focal adhesion kinase 1; in assay [1]; in [3]; at TGF-beta receptor type-1; in assay [4]; in assay [5]) was more than 10 µM in each case. Moreover, the Kd in assay [6], in assay [7], in assay [8] and in assay [9] was more than 10 µM in each case.

On to `NC(=O)c1ccc(-c2nc(-c3ccc4c(c3)OCO4)c(-c3ccccn3)[nH]2)cc1` [SB-431542], for which the Kd (on Focal adhesion kinase 1; in assay [1]; in [2]; in [4]; in assay [5]; in [6]) was more than 10 µM throughout. Further, the Kd in assay [7], in assay [8] and in assay [9] was more than 10 µM each time.
